Data: ChEMBL document CHEMBL4376804, “Review of Transient Receptor Potential Canonical (TRPC5) Channel Modulators and Diseases” (J Med Chem, 2019)

These compounds were tested against T1, Short transient receptor potential channel 5 (Homo sapiens, UniProt Q9UL62) (assay: Inhibition of TRPC5 (unknown origin) expressed in HEK293/TREx cells assessed as reduction in intracellular calcium level measured for 3 mins by fluo4 dye-based fluorescence assay).
T1 sequence (Q9UL62 whole entry): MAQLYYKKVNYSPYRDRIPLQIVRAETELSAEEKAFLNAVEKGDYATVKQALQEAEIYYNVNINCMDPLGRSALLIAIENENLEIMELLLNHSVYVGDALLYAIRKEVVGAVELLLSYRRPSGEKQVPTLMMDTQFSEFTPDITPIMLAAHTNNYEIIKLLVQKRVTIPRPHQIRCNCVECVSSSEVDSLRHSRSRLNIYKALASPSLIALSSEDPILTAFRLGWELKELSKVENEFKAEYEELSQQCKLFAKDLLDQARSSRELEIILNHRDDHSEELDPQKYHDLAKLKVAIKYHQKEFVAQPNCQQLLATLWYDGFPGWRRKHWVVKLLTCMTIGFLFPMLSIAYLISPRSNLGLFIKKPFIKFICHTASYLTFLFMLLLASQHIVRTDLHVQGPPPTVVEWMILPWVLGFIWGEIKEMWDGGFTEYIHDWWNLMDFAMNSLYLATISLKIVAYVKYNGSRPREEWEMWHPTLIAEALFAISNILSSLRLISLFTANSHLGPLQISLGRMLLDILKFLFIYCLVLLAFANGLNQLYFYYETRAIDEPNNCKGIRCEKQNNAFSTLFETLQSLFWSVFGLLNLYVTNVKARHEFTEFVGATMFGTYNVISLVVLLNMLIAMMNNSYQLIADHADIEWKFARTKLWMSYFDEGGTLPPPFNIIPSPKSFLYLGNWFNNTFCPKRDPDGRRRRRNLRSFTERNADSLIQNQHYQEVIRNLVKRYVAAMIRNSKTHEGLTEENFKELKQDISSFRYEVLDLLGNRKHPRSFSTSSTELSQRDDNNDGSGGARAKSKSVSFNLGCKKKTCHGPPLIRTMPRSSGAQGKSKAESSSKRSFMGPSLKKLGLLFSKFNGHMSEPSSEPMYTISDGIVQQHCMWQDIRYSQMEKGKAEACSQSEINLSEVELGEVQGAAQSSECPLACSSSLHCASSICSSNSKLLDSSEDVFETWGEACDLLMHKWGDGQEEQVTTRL
Format: cell-based

IC50 | SMILES
195 to 9800 nM | Cn1c(=O)n(CCCO)c(=O)c2c(Cc3ccc(Cl)cc3)c(Oc3cccc(Cl)c3)ncc21
1 to 395 nM | CCCOc1ccc2c(c1Cc1ccc(F)cc1)c(=O)n(CCCO)c(=O)n2C
408 to 7540 nM | Cn1c(-c2cccc(OC(F)(F)F)c2)cc2c1c(=O)n(CCCO)c(=O)n2C
21 to 1700 nM | Cn1c(=O)n(CCCO)c(=O)c2c(Cc3ccc(Cl)cc3)c(-c3cccc(Cl)c3)oc21
21 to 1700 nM | Cc1c(-c2cccc(F)c2)sc2c1c(=O)n(CCCO)c(=O)n2C
1 to 395 nM | Cn1c(=O)n(CCCO)c(=O)c2c(Cc3ccccc3)c(Oc3cccc(Cl)c3)ccc21
1 to 395 nM | COc1ccc2c(c1Cc1ccc(F)cc1)c(=O)n(CCCO)c(=O)n2C
21 to 1700 nM | Cn1c(=O)n(CCCO)c(=O)c2c(C(O)c3ccc(Cl)cc3)c(Oc3cccc(OC(F)(F)F)c3)sc21 (stereo not drawn)
1 to 395 nM | CC(C)Oc1ccc2c(c1Cc1ccc(F)cc1)c(=O)n(CCCO)c(=O)n2C
21 to 1700 nM | CC(C)CC(O)c1c(-c2cccc(OC(F)(F)F)c2)sc2c1c(=O)n(CCCO)c(=O)n2C (stereo not drawn)
1 to 395 nM | Cn1c(=O)n(CCCCO)c(=O)c2c(Cc3ccccc3)c(Oc3cccc(OC(F)(F)F)c3)ccc21
1 to 395 nM | Cn1c(=O)n(CCCO)c(=O)c2c(Cc3ccccc3)c(Oc3cccc(OC(F)(F)F)c3)ccc21
21 to 1700 nM | CC(C)CCc1c(-c2cccc(OC(F)(F)F)c2)sc2c1c(=O)n(CCCO)c(=O)n2C
195 to 9800 nM | Cn1c(=O)n(CCCOC(=O)O)c(=O)c2c(Cc3ccc(Cl)cc3)c(-c3ccc(Cl)cc3)ncc21
21 to 1700 nM | Cn1c(=O)n(CCCO)c(=O)c2c(Cc3ccc(Cl)cc3)c(Oc3cccc(Cl)c3)sc21
195 to 9800 nM | CC(C)CCc1c(-c2ccc(Cl)cc2)ncc2c1c(=O)n(CCCO)c(=O)n2C
1 to 395 nM | Cn1c(=O)n(CCCO)c(=O)c2c(Cc3ccc(F)cc3)c(Oc3cccc(OC(F)(F)F)c3)ccc21
21 to 1700 nM | Cn1c(=O)n(CCCO)c(=O)c2c(Cc3ccc(Cl)cc3)c(Oc3cccc(OC(F)(F)F)c3)sc21
408 to 7540 nM | Cn1c(=O)n(CCCO)c(=O)c2c1cc(-c1cccc(OC(F)(F)F)c1)n2Cc1ccc(Cl)cc1
408 to 7540 nM | Cc1c(-c2cccc(OC(F)(F)F)c2)[nH]c2c(=O)n(CCCO)c(=O)n(C)c12
408 to 7540 nM | Cn1c(=O)n(CCCO)c(=O)c2c1cc(-c1cccc(Cl)c1)n2Cc1ccc(Cl)cc1
408 to 7540 nM | Cc1c(-c2cccc(OC(F)(F)F)c2)n(C)c2c(=O)n(CCCO)c(=O)n(C)c12
21 to 1700 nM | Cc1c(-c2cccc(Cl)c2)sc2c1c(=O)n(CCCO)c(=O)n2C
21 to 1700 nM | Cn1c(=O)n(CCCO)c(=O)c2c(Cc3ccc(Cl)cc3)c(-c3cccc(Cl)c3)sc21

IC50 | SMILES
21 to 1700 nM | Cc1c(-c2ccccc2Cl)sc2c1c(=O)n(CCCO)c(=O)n2C
21 to 1700 nM | Cc1c(-c2cncc(Cl)c2)sc2c1c(=O)n(CCCO)c(=O)n2C
21 to 1700 nM | Cc1c(-c2ccc3ccccc3c2)sc2c1c(=O)n(CCCO)c(=O)n2C
1 to 395 nM | CCCCOc1ccc2c(c1Cc1ccc(F)cc1)c(=O)n(CCCO)c(=O)n2C
21 to 1700 nM | O=c1c2c(Cc3ccc(Cl)cc3)c(-c3cccc(Cl)c3)oc2n(CCCO)c(=O)n1CCCO
21 to 1700 nM | Cc1c(-c2cccc(OC(F)(F)F)c2)sc2c1c(=O)n(CCCO)c(=O)n2C
21 to 1700 nM | Cn1c(=O)n(CCCO)c(=O)c2c(C(O)c3ccc(Cl)cc3)c(-c3cccc(Cl)c3)sc21 (stereo not drawn)
408 to 7540 nM | Cn1c(=O)n(CCCO)c(=O)c2c1c(-c1cccc(Cl)c1)cn2Cc1ccc(Cl)cc1
21 to 1700 nM | Cn1c(=O)n(CCCO)c(=O)c2c(Cc3ccc(Cl)cc3)c(-c3cccc(OC(F)(F)F)c3)sc21
21 to 1700 nM | Cc1c(-c2cccc(Cl)c2Cl)sc2c1c(=O)n(CCCO)c(=O)n2C
195 to 9800 nM | Cn1c(=O)n(CCCO)c(=O)c2c(Cc3ccccc3)c(-c3cccc(OC(F)(F)F)c3)ncc21
21 to 1700 nM | Cc1c(-c2ccccc2OC(F)(F)F)sc2c1c(=O)n(CCCO)c(=O)n2C
195 to 9800 nM | CC(C)CCc1c(-c2cccc(Cl)c2)ncc2c1c(=O)n(CCCO)c(=O)n2C
21 to 1700 nM | Cn1c(=O)n(CCCO)c(=O)c2c(Cc3ccc(Cl)cc3)c(-c3ccc(Cl)cc3)sc21
408 to 7540 nM | Cc1c(-c2cccc(OC(F)(F)F)c2)n(Cc2ccc(Cl)cc2)c2c(=O)n(CCCO)c(=O)n(C)c12
408 to 7540 nM | Cc1cn(Cc2ccc(Cl)cc2)c2c(=O)n(CCCO)c(=O)n(C)c12
21 to 1700 nM | Cc1c(-c2ccc(Cl)cc2)sc2c1c(=O)n(CCCO)c(=O)n2C
21 to 1700 nM | Cc1c(-c2ccc(F)c(F)c2)sc2c1c(=O)n(CCCO)c(=O)n2C
21 to 1700 nM | Cc1c(-c2ccc(Cl)c(Cl)c2)sc2c1c(=O)n(CCCO)c(=O)n2C
195 to 9800 nM | CC(C)c1ccccc1-c1ncc2c(c1Cc1ccc(Cl)cc1)c(=O)n(CCCO)c(=O)n2C
195 to 9800 nM | CC(C)c1ccccc1-c1cc2c(=O)n(CCCO)c(=O)n(C)c2cn1
1 to 395 nM | Cn1c(=O)n(CCCO)c(=O)c2c(Cc3ccccc3)c(-c3cccc(OC(F)(F)F)c3)ccc21
21 to 1700 nM | Cc1c(-c2ccc(F)c(C(F)(F)F)c2)sc2c1c(=O)n(CCCO)c(=O)n2C
195 to 9800 nM | CC(C)CCc1c(-c2ccccc2C(C)C)ncc2c1c(=O)n(CCCO)c(=O)n2C

What follows are compounds tested against T1, Short transient receptor potential channel 5 (assay: Inhibition of human TRPC5 expressed in HEK293 cells assessed as reduction in gadolinium-induced calcium entry after 30 mins by fluo-4 dye based fluorescence assay).
Format: cell-based

IC50 | SMILES
> 10 µM | O=c1cc(-c2ccc(O)cc2)oc2cc(O)cc(O)c12 [APIGENIN]
> 10 µM | O=c1c(O)c(-c2cc(O)c(O)c(O)c2)oc2cc(O)cc(O)c12 [MYRICETIN]

SMILES | IC50
O=c1cc(-c2ccc(O)c(O)c2)oc2cc(O)cc(O)c12 [LUTEOLIN] | > 10 µM

The compounds below were run against T2, Short transient receptor potential channel 3 (Homo sapiens, UniProt Q13507) (assay: Inhibition of YFP-tagged TRPC3 (unknown origin) expressed in HEK293 cells assessed as reduction carbhocol-induced receptor operated Calcium influx after 5 mins by fura-2-AM dye based assay).
T2 sequence (Q13507 whole entry): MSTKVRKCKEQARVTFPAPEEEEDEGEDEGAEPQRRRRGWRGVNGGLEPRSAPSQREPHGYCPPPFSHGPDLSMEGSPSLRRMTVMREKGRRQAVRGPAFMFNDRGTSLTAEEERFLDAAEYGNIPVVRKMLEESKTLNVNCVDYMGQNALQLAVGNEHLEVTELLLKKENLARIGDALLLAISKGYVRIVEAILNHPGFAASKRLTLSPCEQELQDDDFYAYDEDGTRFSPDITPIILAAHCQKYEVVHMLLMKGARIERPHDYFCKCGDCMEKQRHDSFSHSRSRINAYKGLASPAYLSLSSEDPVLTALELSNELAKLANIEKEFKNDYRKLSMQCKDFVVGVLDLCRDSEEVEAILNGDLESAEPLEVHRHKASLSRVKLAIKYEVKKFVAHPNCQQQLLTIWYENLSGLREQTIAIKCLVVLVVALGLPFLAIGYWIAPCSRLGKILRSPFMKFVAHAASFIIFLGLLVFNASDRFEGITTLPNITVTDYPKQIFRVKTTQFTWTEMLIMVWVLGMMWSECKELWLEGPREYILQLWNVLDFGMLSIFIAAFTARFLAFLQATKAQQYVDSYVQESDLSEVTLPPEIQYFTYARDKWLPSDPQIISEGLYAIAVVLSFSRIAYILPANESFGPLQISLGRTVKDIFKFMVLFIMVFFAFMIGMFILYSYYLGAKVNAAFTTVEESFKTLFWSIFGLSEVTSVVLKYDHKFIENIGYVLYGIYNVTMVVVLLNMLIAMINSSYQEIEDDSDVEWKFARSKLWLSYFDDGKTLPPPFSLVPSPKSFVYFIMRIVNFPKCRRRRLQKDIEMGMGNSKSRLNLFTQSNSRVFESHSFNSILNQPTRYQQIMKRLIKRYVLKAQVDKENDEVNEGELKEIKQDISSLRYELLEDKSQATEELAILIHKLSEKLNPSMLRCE
Format: cell-based

IC50 | SMILES
720 nM | Cc1ccc(S(=O)(=O)Nc2ccc(-n3nc(C(F)(F)F)cc3C(F)(F)F)cc2)cc1

The compounds below were run against ORAI1/STIM1 (Rattus norvegicus, UniProt P84903+Q5M848) (assay: Inhibition of ORAI/STIM1 in thapsigargin treated rat RBL2H3 cells assessed as reduction in store-operated calcium entry after 5 mins by fura-2-AM dye based assay).
Format: cell-based

Sequence of ORAI1/STIM1 (P84903 whole entry): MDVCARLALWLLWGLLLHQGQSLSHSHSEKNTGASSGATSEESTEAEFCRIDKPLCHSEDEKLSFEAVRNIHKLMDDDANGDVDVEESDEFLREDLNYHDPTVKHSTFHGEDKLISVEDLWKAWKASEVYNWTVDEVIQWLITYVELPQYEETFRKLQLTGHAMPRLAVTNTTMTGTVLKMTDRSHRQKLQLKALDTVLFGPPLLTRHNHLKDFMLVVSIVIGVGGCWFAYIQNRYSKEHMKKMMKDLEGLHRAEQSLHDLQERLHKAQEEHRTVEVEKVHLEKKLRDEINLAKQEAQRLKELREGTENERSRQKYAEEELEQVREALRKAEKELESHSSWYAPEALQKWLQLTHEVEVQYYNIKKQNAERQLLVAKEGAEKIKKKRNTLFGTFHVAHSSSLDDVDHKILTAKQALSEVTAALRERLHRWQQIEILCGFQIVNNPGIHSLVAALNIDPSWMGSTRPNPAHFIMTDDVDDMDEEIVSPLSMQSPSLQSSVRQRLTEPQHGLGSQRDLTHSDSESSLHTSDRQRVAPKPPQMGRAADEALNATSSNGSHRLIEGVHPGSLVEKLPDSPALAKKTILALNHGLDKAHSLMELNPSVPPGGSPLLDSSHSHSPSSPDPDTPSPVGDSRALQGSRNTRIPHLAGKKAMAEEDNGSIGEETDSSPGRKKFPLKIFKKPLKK
Sequence of ORAI1/STIM1 (Q5M848 whole entry): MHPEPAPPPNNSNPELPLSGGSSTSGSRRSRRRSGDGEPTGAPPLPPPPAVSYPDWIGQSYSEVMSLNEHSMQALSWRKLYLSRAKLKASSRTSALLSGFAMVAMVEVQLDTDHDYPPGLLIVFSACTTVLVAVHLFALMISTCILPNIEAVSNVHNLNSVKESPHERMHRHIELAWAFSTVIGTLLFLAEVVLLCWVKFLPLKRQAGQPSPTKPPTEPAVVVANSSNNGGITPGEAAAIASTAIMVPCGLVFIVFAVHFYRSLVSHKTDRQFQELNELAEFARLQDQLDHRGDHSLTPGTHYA

IC50 | SMILES
13.1 µM | Cc1ccc(S(=O)(=O)Nc2ccc(-n3nc(C(F)(F)F)cc3C(F)(F)F)cc2)cc1
